Reference: patent US4939177A, “Use of avarol for the control of AIDS and ARC” (Merz + Co. GmbH & Co., priority 1986, dated 1990)

Tests used:
[1] = Organ distribution of tritium labelled avarol in rats; type: in vivo, rat; settings: for Concentration of Avarol, Brain / Concentration of Avarol, Heart / Concentration of Avarol, Kidney / Concentration of Avarol, Liver / Concentration of Avarol, Skin / Concentration of Avarol, Spleen / Concentration of Avarol, Testes: rat, 24 hours
lymphoma cell = settings: previous studies; cited from earlier work
HTLV-III p15 = HTLV-III p15 expression in H9-HTLV-III cells, immunofluorescence; type: cell-based; settings: for Expression of p15 (in %): none = 100
Description: H9-cells (M. Popovic, M. G. Sarngadharan, E. Reed, R. C. Gallo, Science: 224, 1984, 497-500) were treated with Polybren® (hexadimethrinbromide available on the market; 2 μg/ml) for 30 minutes at 37° C., washed free of Polybren and infected with 2×10^8 HTLV-III virus particles (isolated from H9 cell cultures by the method of M. Popovic; see above) per 4×10^5 H9 cells. Some assays which were not treated with drugs were used as positive controls, while different concentrations of the compound to be tested (avarone or avarol and their derivatives) were added to the test samples. The HTLV-III reverse transcriptase activity of these cultures was analyzed in the manner described above.
The immunofluorescence assays were carried out on methanol:acetone (1:1)-fixed cells with the use of monoclonal antibodies (from the mouse) against HTLV-III p15 (core protein of MW=15,000) and p24 (core protein of MW=24,000). Both of these proteins are marker proteins which indicate the presence of virus particles in the cells. The HTLV-III Infected cells with or without drug treatment were fixed on toxoplasmosis slides. After fixation with methanol-acetone (1:1) for 30 minutes at room temperature, the slides were stored in sealed plastic containers at -20° C. until use. The monoclonal antibodies were added to the cells, incubated at room temperature in a moisture chamber for one hour and washed for two hours with PBS (phospate buffered saline) containing 0.25% Triton X-100. The cells were then treated for one hour with fluorescein (FITC) labeled goat anti-mouse IgG (Capell Labs.) and washed overnight with PBS buffer containing 0.25% Triton X-100. Fifty percent glycerin was added to the slides and the cell fluorescence was determined with a Zeiss fluorescence microscope.
When the target H9-cells were treated with the HTLV-III isolate and cultivated without the compounds to be tested, the H9-cells were infected and, as established by indirect immunofluorescence assay, there was expression of the p24 and p15 protein. After incubation of the H9-HTLV-III cells with the compounds to be tested, a practically complete protective effect was observed.

SMILES: CC1=CCC[C@H]2[C@](C)(Cc3cc(O)ccc3O)[C@@H](C)CC[C@]12C [Avarol, 2-[(1R)-1,2,3,4,4a,7,8,8aα-octahydro-1β,2β,4aβ,5-tetramethyl-1-naphthylmethyl]-1,4-benzenediol]
- Concentration of Avarol, Brain ([1]; i.v. 2 mg/kg): 0.45 microgram of Avarol per gram o
- Concentration of Avarol, Heart ([1]; i.v. 2 mg/kg): 0.7 microgram of Avarol per gram o
- Concentration of Avarol, Kidney ([1]; i.v. 2 mg/kg): 1.6 microgram of Avarol per gram o
- Concentration of Avarol, Liver ([1]; i.v. 2 mg/kg): 6.4 microgram of Avarol per gram o
- Concentration of Avarol, Skin ([1]; i.v. 2 mg/kg): 0.4 microgram of Avarol per gram o
- Concentration of Avarol, Spleen ([1]; i.v. 2 mg/kg): 1.7 microgram of Avarol per gram o
- Concentration of Avarol, Testes ([1]; i.v. 2 mg/kg): 0.48 microgram of Avarol per gram o
- Concentration of Avarol, Brain ([1]; i.v. 10 mg/kg): 0.58 microgram of Avarol per gram o
- Concentration of Avarol, Heart ([1]; i.v. 10 mg/kg): 0.9 microgram of Avarol per gram o
- Concentration of Avarol, Kidney ([1]; i.v. 10 mg/kg): 2.2 microgram of Avarol per gram o
- Concentration of Avarol, Liver ([1]; i.v. 10 mg/kg): 6.9 microgram of Avarol per gram o
- Concentration of Avarol, Skin ([1]; i.v. 10 mg/kg): 0.6 microgram of Avarol per gram o
- Concentration of Avarol, Spleen ([1]; i.v. 10 mg/kg): 1.9 microgram of Avarol per gram o
- Concentration of Avarol, Testes ([1]; i.v. 10 mg/kg): 0.63 microgram of Avarol per gram o
- Concentration of Avarol, Brain ([1]; i.v. 20 mg/kg): 0.64 microgram of Avarol per gram o
- Concentration of Avarol, Heart ([1]; i.v. 20 mg/kg): 0.9 microgram of Avarol per gram o
- Concentration of Avarol, Kidney ([1]; i.v. 20 mg/kg): 2.4 microgram of Avarol per gram o
- Concentration of Avarol, Liver ([1]; i.v. 20 mg/kg): 7.4 microgram of Avarol per gram o
- Concentration of Avarol, Skin ([1]; i.v. 20 mg/kg): 0.6 microgram of Avarol per gram o
- Concentration of Avarol, Spleen ([1]; i.v. 20 mg/kg): 2.2 microgram of Avarol per gram o
- Concentration of Avarol, Testes ([1]; i.v. 20 mg/kg): 0.67 microgram of Avarol per gram o
- blood-brain barrier penetration ([1]; rats, i.v.): penetrates the blood-brain barrier
- concentration inhibiting lymphoma cell growth by 50% (lymphoma cell): 0.3 to 0.4 µg/mL
- sensitivity of T-cell derived leukemia cells vs normal T- or B-lymphocytes (lymphoma cell): more sensitively inhibited
- Expression of p15 (in %) (HTLV-III p15; 0.1 μg/ml): 37%
- Expression of p15 (in %) (HTLV-III p15; 1 μg/ml): 12%
- Expression of p15 (in %) (HTLV-III p15; 5 μg/ml): 12%
- expression of HTLV-III protein p15, in words (HTLV-III p15; H9-HTLV-III cells): significant reduction
